From patent US20250034129A1, “CRYSTALLINE FORMS OF (6S,7S)-6-FLUORO-7-(2-FLUORO-5-METHYLPHENYL)-3-(TETRAHYDRO-2H-PYRAN-4-YL)-5,6,7,8-TETRAHYDROPYRIDO[2,3-d]PYRIMIDINE-2,4(1H,3H)-DIONE” (MYOKARDIA, INC., priority 2023, published 2025)

Columns and labels:
Format in all cases: physicochemical
[1] = Vapor sorption analysis (TA Instrument VTI-SA+)
Procedure: The vapor sorption experiments for Form B were performed using a TA Instrument VTI-SA+ Vapor Sorption Analyzer. Sample (˜10 mg) was placed in a previously cleaned and tarred platinum pan then loaded into the instrument chamber. Sample was dried at 60° C. until the loss rate of 0.005 wt %/min was obtained for 10 minutes. The sample was then held isothermally at 25° C. while the % RH of the system was stepped between 4, 5, 15, 25, 35, 45, 55, 65, 75, 85, 95, 85, 75, 65, 55, 45, 35, 25, 15, 5, 4% RH. Equilibration criteria was +/−0.01 wt % for 35 min with a maximum equilibration time of 600 min at each step.

[2] = Competitive slurry experiments in ethanol
[3] = Solid state stability in bio-relevant media; conditions: pH 1 HCl 0.1 M, pH 3.05 citrate 50 mM, pH 7.4 phosphate 50 mM, Fassif pH 6.5, Fessif pH 5.0, 37° C., 200 rpm
Procedure: Form B was added to bio-relevant media (pH 1 HCl 0.1 M; pH 3.05 citrate 50 mM; pH 7.4 phosphate 50 mM; Fassif pH 6.5; Fessif pH 5.0) and solid state stability in the media was determined. Procedures are described in more detail as follows:
pH 1 HCl 0.1M: […] HCl was diluted to 100 mL with water. pH 1.02
pH 3.05 citrate 50 mM: 82 mL of 0.1 M citric acid and 18 mL of 0.1 M sodium citrate were mixed together. pH=3.07.
pH 7.4 phosphate 50 mM: 50 mL of 0.2 M KH2PO4 and 39.1 mL of 0.2 M NaOH were dissolved and diluted to 200 mL with water. pH 7.39.
Fassif pH 6.5: 23.4 mg of NaOH, 224.7 mg of NaH2PO4·2H2O and 304.3 mg of NaCl were dissolved and diluted to 50 mL with water. 33.6 mg of SIF powder was dissolved in 15 mL of FaSSIF buffer solution. The solution was kept stirring and equilibrated at ambient condition with light protection for 2 hours. pH=6.37.
Fessif pH 5.0: 202.6 mg of NaOH, 432.7 mg of acetic acid, and 591.3 mg of NaCl were dissolved and diluted to 50 mL with water. pH of the solution was 4.99. 168 mg of SIF powder was dissolved in 15 mL of FeSSIF buffer solution. The solution was kept stirring and equilibrated at ambient condition with light protection for 2 hours. pH=4.94.
30-50 mg of Form B was weighed into 12 mL sample vials and then 3 mL of test media was added respectively. The suspensions were kept shaking at 200 rpm under 37° C. for 24 hours. […]

[4] = Stability study of Form B (thermal and humidity treatments; HPLC purity, XRPD form)
Procedure: The stability study of Form B (before milling) was carried out at 80° C. for two weeks and at 40° C./75% RH for one month. Purity was determined by HPLC and stability was determined by XRPD. […] The stability of milled Form B was carried out as well under the same conditions. […] A purity decrease of 0.8% was detected for milled Form B after being treated at 80° C. for […].

[5] = Slurry conversion of Form A in anhydrous ethanol; conditions: 60° C., 24 hours
Procedure: 3 g of Form A was slurried in 90 mL anhydrous ethanol at 60° C. for 24 hours.

## Cc1ccc(F)c([C@@H]2Nc3[nH]c(=O)n(C4CCOCC4)c(=O)c3C[C@@H]2F)c1 [Form B, (6S,7S)-6-fluoro-7-(2-fluoro-5-methylphenyl)-3-(tetrahydro-2H-pyran-4-yl)-5,6,7,8-tetrahydropyrido[2,3-d]pyrimidine-2,4(1H,3H)-dione]
[1]
  hygroscopicity by vapor sorption analysis: non-hygroscopic
[1]; up to 95% RH, 25° C.
  weight percent gain as measured by vapor sorption analyzer: less than 0.05%
[2]; 10° C. and 60° C.
  relative stability versus Form A in competitive slurry: more stable compared to Form A
  relative stability versus Form C in competitive slurry: more stable compared to Form C
[2]; 22.5° C. and 60° C.
  relative stability versus Form E in competitive slurry: more stable compared to Form E
[2]; temperature ranges covered in the experiments
  overall thermodynamic stability ranking compared to Forms A, C and E: thermodynamically most stable anhydrous form
[3]
  solid form by XRPD after 24 hours in bio-relevant media: remained as Form B
[4]; before milling, 40° C./75% RH for one month
  purity by HPLC after stability test: 99.9%
[4]; before milling, 80° C. for two weeks
  purity by HPLC after stability test: 99.9%
[4]; before milling, 80° C. for two weeks and 40° C./75% RH for one month
  crystal form by XRPD after stability test: remained unchanged
[4]; milled, 40° C./75% RH and 80° C.
  crystal form by XRPD after thermal and humidity treatments: remains unchanged
[4]; milled, 40° C./75% RH for four weeks
  degradation after stability test: did not show any degradation
[4]; milled, 80° C. for four weeks
  purity decrease after stability test: 0.8%
[5]
  thermodynamic stability compared to Form A, from conversion of Form A to Form B: superior thermodynamic stability
